Data taken from patent publication US10092643B2, “Prophylactic and immunomodulatory compositions and uses” (Kherion Technology Limited, priority 2005, dated 2018).

Tests used:
Mtb specific T cells = assay: expansion of Mtb specific T cells after S1P administration to TB-infected macrophages; assay type: cell-based; conditions: S1P administered to TB-infected macrophages
[1] = test system: macrophages and epithelial cells; assay: S1P given before infection: control of infection by macrophages and epithelial cells; assay type: cell-based; conditions: S1P administered before infection
[2] = test system: macrophagic phospholipase D (PLD); conditions: cited from earlier work
Mtb-infected macrophages = conditions: cited from earlier work
[3] = test system: Mycobacterium tuberculosis; conditions: human macrophages; concentration close to physiologic ones; cited from earlier work
[4] = test system: Mycobacterium tuberculosis; conditions: MTB-infected mice, intravenously injected; cited from earlier work
dendritic cells = conditions: administered to dendritic cells in vitro; cited from earlier work
T cells = conditions: Jin et al., Blood 2003; cited from earlier work
[5] = safety of S1P administration in mice; conditions: levels at which immunoregulatory activity can be measured
M. tuberculosis (Erdman) = assay: S1P as adjuvant for BCG vaccine in mice (immunogenicity and protection protocol); conditions: protocol to be followed

Q: For `CCCCCCCCCCCCC/C=C/C(O)C(N)COP(=O)(O)O` [S1P, D-erythro-sphingosine 1-phosphate], which “expansion of Mtb specific T cells” value (Mtb specific T cells) is on record?
A: The value was “induces expansion of Mtb specific T cells”.

Q: What about the “capacity to control an infection” value [1] of the same compound?
A: The value was “increases the capacity of macrophages and epithelial cells to control an infection”.

Q: What about the “PLD activity in macrophages” value [2] of the same compound?
A: The value was “increase PLD activity in macrophages”.

Q: What about the phagolysosomal fusion (Mtb-infected macrophages) of the same compound?
A: Its phagolysosomal fusion is “promote phagolysosomal fusion”.

Q: And the “antimicrobial activity / intracellular killing of TB” value [3]?
A: The value was “induce antimicrobial activity in human macrophages leading to the intracellular killing of TB”.

Q: And the mycobacterial growth [4]?
A: The mycobacterial growth was “significantly reduced”.

Q: And the pulmonary tissue damage [4]?
A: Its pulmonary tissue damage is “significantly reduced”.

Q: What about the “secretion of cytokine profiles (Th1/Th2 responses)” value (dendritic cells) of the same compound?
A: The value was “alter the secretion of cytokine profiles”.

Q: What about the “activation and proliferation of T cells” value (T cells) of the same compound?
A: The value was “inhibit activation and proliferation of T cells”.

Q: And the safety [5]?
A: Its safety is “appears safe”.

Q: What about the “properties as a vaccine adjuvant” value (M. tuberculosis (Erdman)) of the same compound?
A: Its value is “novel, unexpected and advantageous properties as a vaccine adjuvant”.
